Data taken from PMC3280264 (PLoS ONE, 2012).

Target: T1, Human SGLT3 (Homo sapiens, UniProt Q9NY91)
T1 construct: expressed in transfected cells; host or cells: oocytes (from Nasco), injected with mRNA
T1 sequence (Q9NY91 1-659): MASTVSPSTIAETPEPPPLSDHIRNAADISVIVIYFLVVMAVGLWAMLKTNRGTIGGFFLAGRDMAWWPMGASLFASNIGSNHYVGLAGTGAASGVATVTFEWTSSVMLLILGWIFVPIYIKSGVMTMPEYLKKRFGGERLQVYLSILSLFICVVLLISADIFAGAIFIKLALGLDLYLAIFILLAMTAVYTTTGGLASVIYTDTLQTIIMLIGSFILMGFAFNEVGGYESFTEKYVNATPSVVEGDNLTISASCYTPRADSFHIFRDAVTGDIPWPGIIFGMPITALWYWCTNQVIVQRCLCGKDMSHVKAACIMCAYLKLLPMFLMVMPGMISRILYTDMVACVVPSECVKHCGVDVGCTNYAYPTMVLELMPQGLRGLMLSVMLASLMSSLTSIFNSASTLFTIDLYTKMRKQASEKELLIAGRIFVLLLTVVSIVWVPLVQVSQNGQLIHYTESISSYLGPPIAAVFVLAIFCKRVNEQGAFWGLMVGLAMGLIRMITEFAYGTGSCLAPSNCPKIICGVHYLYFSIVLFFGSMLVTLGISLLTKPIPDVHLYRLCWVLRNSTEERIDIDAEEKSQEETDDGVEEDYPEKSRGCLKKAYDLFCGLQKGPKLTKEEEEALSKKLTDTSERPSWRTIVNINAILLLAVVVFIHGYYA
Assay: Two-electrode voltage clamp recording of oocytes expressing human SGLT3 (DNJ-induced currents)
Assay type: cell-based
Conditions: 3 mM
Method: Oocytes were obtained from Nasco (Fort Atkinson, Wisconsin, USA). Stage V–VI oocytes were injected with 50 nl of either human SGLT3 mRNA (at 1 ng/nl) or distilled water (control) and incubated at 18°C in a calcium-free solution (92 mM NaCl, 2 mM KCl, 1 mM MgCl2, 5 mM HEPES, 0.05 mg/ml gentamicin at pH 7.5) for 4–6 days before recording. The extracellular recording solution contained 92 mM NaCl, 2 mM KCl, 1.8 mM CaCl2, 1 mM MgCl2, and 5 mM HEPES at pH 7.5. Injected oocytes were impaled with 2 microelectrodes filled with 3 M KCl (resistance of ∼0.5–3 MΩ) and voltage clamped to −120 mV, at which continuous recordings were made (filtered at 5 kHz and sampled at 625 Hz). To establish the baseline in the absence of agonist, oocytes were first perfused for 85 seconds with a control buffer (92 mM NaCl, 2 mM KCl, 1.8 mM CaCl2, 1 mM MgCl2, 5 mM HEPES at pH 7.5). […] Finally, phlorizin (3 mM) was applied in the presence of 50 µM DNJ for 160 seconds. All experiments were performed at 22°C. Currents in the presence of 50 µM DNJ were subtracted from leak currents (currents in control buffer alone) to obtain DNJ-induced currents (IDNJ). Effects of compounds were calculated as: % Inhibition = 100×(IDNJ−Icmpd)/IDNJ, where Icmpd is the DNJ-induced and leak-subtracted current in the presence of a compound or DMSO. Due to lack of effect at the highest dose tested, a dose-response relationship was not examined.

- inhibition at 3000 µM (SGLT3-injected oocytes, 50 µM DNJ, n = 14, P<0.05): 73.5 ± 4.2%
- effect on currents in sham-injected oocytes (sham (water)-injected oocytes, in the presence of 50 µM DNJ): did not affect currents
SMILES: O=C(CCc1ccc(O)cc1)c1c(O)cc(O)cc1O[C@@H]1O[C@H](CO)[C@@H](O)[C@H](O)[C@H]1O [phlorizin, reference compound]
